Data published in US20240368181A1, “QUINOXALINE DERIVATIVES AND USES THEREOF” (Black Diamond Therapeutics, Inc., priority 2021, published 2024).

Legend:
Format in all cases: cell-based
[1] = test system: SNU-16 (FGFR2-amplification) cells; assay: Cell proliferation assay (CellTiterGlo), SNU-16 cells; conditions: Homo sapiens, SNU-16, 72 h, inhibition of cell growth, intracellular ATP (CellTiterGlo)
Text: (§1) The following is a non-limiting example that describes a cell proliferation assay used to determine the biological activity of the compounds of the present disclosure. More specifically, the assay as used to assess the ability of the compounds to inhibit cell proliferation.
(§2) Briefly, SNU-16 (FGFR2-amplification) cells, were resuspended at 18,520c/ml mL in RPMI containing 10% Heat Inactivated FBS, 1% L-glutamine and dispensed in duplicate (463c/well) into 384 well plates. UM-UC-14 (FGFR3-S249C) cells were resuspended at 40.000c/ml mL in RPMI containing 10% Heat Inactivated FBS, 1% L-glutamine and dispensed in duplicate (1000c/well) into 384 well plates. DMS-114 (FGFR1 overexpression) cells and were resuspended at 40,000c/ml mL in RPMI containing 10% Heat Inactivated FBS, 1% L-glutamine and dispensed in duplicate (1000c/well) into 384 well plates. RT-112 (FGFR3-Tacc3 fusion) cells were resuspended at 40,000c/ml mL in RPMI containing 10% Heat Inactivated FBS, 1% L-glutamine and dispensed in duplicate (1000c/well) into 384 well plates. To determine the effect of the compounds of the present disclosure on cell proliferation, SNU-16, UM-UC-14, DMS-114 and RT112 cells were incubated for 72 hours in the presence of vehicle control (DMSO) or a compound of the present disclosure at varying concentrations. Inhibition of cell growth was subsequently determined by luminescent quantification (Envision by Perkin Elmer) of intracellular ATP content using CellTiterGlo (Promega), according to the protocol provided by the manufacturer. To determine the IC50 values, the vehicle-treated cells were normalized as viable cells and analyzed using the CDD Vault software (Collaborative Drug Discovery, Burlingame, CA).

[2] = test system: UM-UC-14 (FGFR3-S249C) cells; assay: Cell proliferation assay (CellTiterGlo), UM-UC-14 cells; conditions: inhibition of cell growth, intracellular ATP (CellTiterGlo)
Text: as §1, §2

[3] = test system: DMS-114 (FGFR1 overexpression) cells; assay: Cell proliferation assay (CellTiterGlo), DMS-114 cells; conditions: 72 hours, inhibition of cell growth, intracellular ATP (CellTiterGlo)
Text: as §1, §2

[4] = test system: RT-112 (FGFR3-Tacc3 fusion) cells; assay: Cell proliferation assay (CellTiterGlo), RT-112 cells; conditions: RT112 cells, inhibition of cell growth, intracellular ATP (CellTiterGlo)
Text: as §1, §2

| SMILES | IC50 [1] [µM] | IC50 ([2]; UMUC14, 72 h) [µM] | IC50 ([3]; Homo sapiens) [µM] | IC50 ([4]; Homo sapiens, RT-112, 72 h) [µM] | IC50 ([2]; 72 hours) [µM] | IC50 [3] [µM] | IC50 ([4]; 72 hours) [µM] |
| --- | --- | --- | --- | --- | --- | --- | --- |
| Cc1nc2ccc(Oc3ccc4ncc(-c5cnn(CC6CCN(S(=O)(=O)CC#N)CC6)c5)nc4c3Cl)cc2[nH]1 [Compound 28] | 0.02 to 0.1 | 0.02 to 0.1 | 0.1 to 0.4 | 0.02 to 0.1 | – | – | – |
| COC(=O)CS(=O)(=O)N1CCC(Cn2cc(-c3cnc4ccc(Oc5ccc6nc(C)[nH]c6c5)c(Cl)c4n3)cn2)CC1 [Compound 29] | ≥ 0.4 | ≥ 0.4 | ≥ 0.4 | 0.1 to 0.4 | – | – | – |
| COCCN1CCC(Cn2cc(-c3cnc4ccc(Oc5ccc6nc(C)[nH]c6c5)c(Cl)c4n3)cn2)CC1 [Compound 30] | < 0.02 | < 0.02 | 0.1 to 0.4 | < 0.02 | – | – | – |
| Cc1nc2ccc(Oc3ccc4ncc(-c5cnn(CC6CCN(C)CC6)c5C)nc4c3Cl)cc2[nH]1 [Compound 31] | 0.02 to 0.1 | 0.02 to 0.1 | 0.1 to 0.4 | 0.02 to 0.1 | – | – | – |
| Cc1nc2ccc(Oc3ccc4ncc(-c5cn(CC6CCN(C)CC6)nc5C)nc4c3Cl)cc2[nH]1 [Compound 32] | 0.02 to 0.1 | 0.02 to 0.1 | ≥ 0.4 | 0.02 to 0.1 | – | – | – |
| Cc1nc2ccc(Oc3ccc4ncc(-c5cnn(CC6CCN(S(C)(=O)=O)CC6)c5)nc4c3Cl)cc2n1S(C)(=O)=O [Compound 33] | 0.02 to 0.1 | 0.1 to 0.4 | ≥ 0.4 | 0.02 to 0.1 | – | – | – |
| Cc1nc2ccc(Oc3ccc4ncc(-c5cnn(CC6CCN(C7COC7)CC6)c5)nc4c3Cl)cc2[nH]1 [Compound 35] | < 0.02 | 0.02 to 0.1 | ≥ 0.4 | < 0.02 | – | – | – |
| Cc1nc2ccc(Oc3ccc4ncc(-c5cnn(CC6CCN(C)CC6)c5)nc4c3F)cc2[nH]1 [Compound 36] | 0.1 to 0.4 | 0.1 to 0.4 | ≥ 0.4 | 0.1 to 0.4 | – | – | – |
| Cc1nc2ccc(Oc3ccc4ncc(-c5cnn(CC6CCN(S(=O)(=O)CC(C)C)CC6)c5)nc4c3Cl)cc2[nH]1 [Compound 37] | 0.02 to 0.1 | 0.02 to 0.1 | 0.1 to 0.4 | 0.02 to 0.1 | – | – | – |
| C=CC(=O)N1CCC(Cn2cc(-c3cnc4ccc(Oc5ccc6nc(C)[nH]c6c5)c(Cl)c4n3)cn2)CC1 [Compound 38] | 0.02 to 0.1 | 0.02 to 0.1 | 0.1 to 0.4 | < 0.02 | – | – | – |
| C=CC(=O)N1CCC(CCn2cc(-c3cnc4ccc(Oc5ccc6nc(C)[nH]c6c5)c(Cl)c4n3)cn2)CC1 [Compound 39] | 0.02 to 0.1 | 0.02 to 0.1 | 0.1 to 0.4 | 0.02 to 0.1 | – | – | – |
| Cc1nc2ccc(Oc3ccc4ncc(-c5cnn(CC6CCN(S(=O)(=O)C(C)C)CC6)c5)nc4c3Cl)cc2[nH]1 [Compound 40] | 0.02 to 0.1 | 0.02 to 0.1 | ≥ 0.4 | 0.02 to 0.1 | – | – | – |
| Cc1nc2c(C#N)cc(Oc3ccc4ncc(-c5cnn(CC6CCN(C)CC6)c5)nc4c3Cl)cc2[nH]1 [Compound 41] | 0.1 to 0.4 | 0.1 to 0.4 | ≥ 0.4 | 0.1 to 0.4 | – | – | – |
| Cc1nc2ccc(Oc3ccc4ncc(-c5cnn(CC6CCN(S(=O)(=O)C7CC7)CC6)c5)nc4c3Cl)cc2[nH]1 [Compound 42] | 0.02 to 0.1 | 0.02 to 0.1 | ≥ 0.4 | 0.02 to 0.1 | – | – | – |
| Cc1nc2ccc(Oc3ccc4ncc(-c5cnn(CC6CCN(S(C)(=O)=O)CC6)c5)nc4c3Cl)cc2[nH]1 [Compound 43] | 0.02 to 0.1 | 0.02 to 0.1 | ≥ 0.4 | 0.02 to 0.1 | – | – | – |
| Cc1nc2ccc(Oc3ccc4ncc(-c5cnn(CC6CC6)c5)nc4c3Cl)cc2[nH]1 [Compound 44] | 0.1 to 0.4 | 0.1 to 0.4 | ≥ 0.4 | 0.1 to 0.4 | – | – | – |

| SMILES | IC50 [1] [µM] | IC50 ([2]; UMUC14, 72 h) [µM] | IC50 ([3]; Homo sapiens) [µM] | IC50 ([4]; Homo sapiens, RT-112, 72 h) [µM] | IC50 ([2]; 72 hours) [µM] | IC50 [3] [µM] | IC50 ([4]; 72 hours) [µM] |
| --- | --- | --- | --- | --- | --- | --- | --- |
| Cc1nc2ccc(Oc3ccc4ncc(-c5cnn(CC6CCN(C)CC6)c5)nc4c3C)cc2[nH]1 [Compound 45] | 0.02 to 0.1 | 0.02 to 0.1 | 0.1 to 0.4 | 0.02 to 0.1 | – | – | – |
| COc1cc(Oc2ccc3ncc(-c4cnn(CC5CCN(C)CC5)c4)nc3c2Cl)cc2[nH]c(C)nc12 [Compound 46] | 0.1 to 0.4 | ≥ 0.4 | ≥ 0.4 | 0.1 to 0.4 | – | – | – |
| Cc1nc2ccc(Oc3cc4nc(-c5cnn(CC6CCOCC6)c5)cnc4cc3Cl)cc2[nH]1 [Compound 48] | ≥ 0.4 | ≥ 0.4 | ≥ 0.4 | ≥ 0.4 | – | – | – |
| Cc1nc2ccc(Oc3cc4nc(-c5cnn(CC6CCN(C)CC6)c5)cnc4cc3F)cc2[nH]1 [Compound 49] | ≥ 0.4 | ≥ 0.4 | ≥ 0.4 | ≥ 0.4 | – | – | – |
| Cc1nc2ccc(Oc3cc4nc(-c5cnn(CC6CCN(C)CC6)c5)cnc4cc3C)cc2[nH]1 [Compound 50] | ≥ 0.4 | ≥ 0.4 | ≥ 0.4 | ≥ 0.4 | – | – | – |
| Cc1nc2ccc(Oc3ccc4ncc(-c5cn[nH]c5)nc4c3Cl)cc2[nH]1 [Compound 51] | ≥ 0.4 | ≥ 0.4 | ≥ 0.4 | 0.1 to 0.4 | – | – | – |
| Cc1nc2ccc(Oc3ccc4ncc(-c5c(C)nn(CC6CCN(C)CC6)c5C)nc4c3Cl)cc2[nH]1 [Compound 52] | 0.1 to 0.4 | 0.1 to 0.4 | ≥ 0.4 | 0.1 to 0.4 | – | – | – |
| Cc1nc2ccc(Oc3ccc4ncc(-c5cnn(CCC6CCN(C)CC6)c5)nc4c3)cc2[nH]1 [Compound 55] | 0.1 to 0.4 | 0.1 to 0.4 | ≥ 0.4 | 0.1 to 0.4 | – | – | – |
| Cc1nc2ccc(Oc3ccc4ncc(-c5cnn(CC6CCOCC6)c5)nc4c3Cl)cc2[nH]1 [Compound 59] | < 0.02 | – | – | – | < 0.02 | 0.1 to 0.4 | < 0.02 |
| Cc1nc2c(C#N)cc(Oc3ccc4ncc(-c5cnn(CC6CCOCC6)c5)nc4c3)cc2[nH]1 [Compound 60] | ≥ 0.4 | ≥ 0.4 | ≥ 0.4 | ≥ 0.4 | – | – | – |
| COc1cc(Oc2ccc3ncc(-c4cnn(CC5CCOCC5)c4)nc3c2)cc2[nH]c(C)nc12 [Compound 61] | ≥ 0.4 | ≥ 0.4 | ≥ 0.4 | ≥ 0.4 | – | – | – |
| Cc1nc2cc(Oc3ccc4ncc(-c5cnn(CC6CCOCC6)c5)nc4c3)ccc2[nH]1 [Compound 62] | 0.02 to 0.1 | 0.1 to 0.4 | ≥ 0.4 | 0.02 to 0.1 | – | – | – |
| Cc1cn2ccc(Oc3ccc4ncc(-c5cnn(CC6CCN(C)CC6)c5)nc4c3Cl)cc2n1 [Compound 63] | 0.1 to 0.4 | ≥ 0.4 | ≥ 0.4 | 0.1 to 0.4 | – | – | – |
| Cc1nc2ccc(Oc3ccc4ncc(-c5cc(CC6CCN(C)CC6)no5)nc4c3Cl)cc2[nH]1 [Compound 64] | 0.1 to 0.4 | 0.1 to 0.4 | ≥ 0.4 | 0.1 to 0.4 | – | – | – |
| Cc1ccc2ccc(Oc3ccc4ncc(-c5cnn(CC6CCN(C)CC6)c5)nc4c3Cl)cc2n1 [Compound 65] | ≥ 0.4 | ≥ 0.4 | ≥ 0.4 | ≥ 0.4 | – | – | – |
